# Assay results from patent publication US20230124087A1, “KV3 ENHANCERS FOR THE TREATMENT OF COGNITIVE DISORDERS” (Hoffmann-La Roche Inc., priority 2020, published 2023).
# Molecular target: T1, Kv3.1 (Homo sapiens, UniProt P48547)
# T1 construct: expressed in transfected cells
# T1 sequence (P48547 1-511): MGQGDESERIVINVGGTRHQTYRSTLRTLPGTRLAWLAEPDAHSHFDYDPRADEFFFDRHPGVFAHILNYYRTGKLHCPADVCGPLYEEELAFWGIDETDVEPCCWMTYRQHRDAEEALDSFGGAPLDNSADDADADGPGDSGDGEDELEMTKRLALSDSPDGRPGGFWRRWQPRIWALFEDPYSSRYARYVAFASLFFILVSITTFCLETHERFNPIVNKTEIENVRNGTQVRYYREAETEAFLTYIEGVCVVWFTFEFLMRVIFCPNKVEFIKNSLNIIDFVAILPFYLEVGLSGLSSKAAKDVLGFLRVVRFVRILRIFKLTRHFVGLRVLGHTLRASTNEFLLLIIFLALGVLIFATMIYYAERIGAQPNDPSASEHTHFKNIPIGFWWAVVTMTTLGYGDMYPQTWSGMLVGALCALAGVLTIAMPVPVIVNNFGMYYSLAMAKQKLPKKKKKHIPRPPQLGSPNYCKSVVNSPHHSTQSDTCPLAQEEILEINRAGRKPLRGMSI
# Assay: Kv3.1 automated patch clamp (Qube) cellular electrophysiology assay
# Type: cell-based
# Settings: not given
# Text: In vitro, high-throughput cellular electrophysiology was employed to detect voltage-dependence of compounds in single concentration screening and IC50 determination for library and medicinal chemistry profiling compounds in 384 well plates.
# HEK-293 cell lines stably expressing coding DNA for Kv3.1, 3.2, 3.3, and 3.4 were validated on an automated patch clamp (APC) platform, Qube from Sophion/Denmark. Cell cultures were maintained in DMEM cell growth media containing FBS and appropriate antibiotics at 37° C., 5% CO2 for a maximum of 20 passages. Intra- and extracellular (w. glucose) HEPES buffers containing various monovalent and divalent cations were adjusted to pH 7.2 and 7.4 respectively. Cells were harvested at 75% confluency and resuspended in extracellular buffer and added to wells. Negative pressure was applied to establish whole cell recording by APC.
# Currents through activated channels were measured directly by APC by employing depolarization voltage steps. Baseline currents were established for the voltage-dependence protocols using a −80 mV holding potential and multiple test pulses at +10 mV or by 10 mV steps from −80 mV to +40 mV, respectively. Test compounds were added after baseline recordings followed by a 10 min incubation, and voltage-dependency protocol recordings. Data was corrected for baseline and leak currents (well based) and normalized for % potentiation (plate based). Two previously reported Kv3 positive modulators of varying potencies were used for run to run and plate to plate quality controls. A non-selective and potent positive modulator was used as a positive control. Percent potentiation was analyzed at −20 mV of the voltage-dependency protocol and voltage shift in channel activation was analyzed using the voltage step protocol from −80 mV to +40 mV. Selectivity was assessed against Kv3.2, Kv3.3, and Kv3.4 overexpressing cell lines using similar methods.
row,Compound,EC50 [µM]
1,"CC(C)(C)c1cc(C#N)ccc1Oc1ccc(-n2c(=O)[nH]c3cc(F)cnc32)cn1 [Example 27, 3-tert-butyl-4-[[5-(6-fluoro-2-oxo-1H-imidazo[4,5-b]pyridin-3-yl)-2-pyridyl]oxy]benzonitrile]",5.5
2,"Cc1ccc(Oc2ccc(-n3c(=O)[nH]c4cncnc43)cn2)cc1Cl [Example 50, 9-[6-(3-chloro-4-methyl-phenoxy)-3-pyridyl]-7H-purin-8-one]",12.2
3,"COc1cc(C)ccc1Oc1ccc(-n2c(=O)[nH]c3cccnc32)cn1 [Example 39, 3-[6-(2-methoxy-4-methyl-phenoxy)-3-pyridyl]-1H-imidazo[4,5-b]pyridin-2-one]",5
4,"Cc1ccc(Oc2ccc(-n3c(=O)[nH]c4cnccc43)cn2)cc1Cl [Example 42, 1-[6-(3-chloro-4-methyl-phenoxy)-3-pyridyl]-3H-imidazo[4,5-c]pyridin-2-one]",10
5,"COc1cc(Oc2ccc(-n3c(=O)[nH]c4cccnc43)cn2)cnc1C [Example 41, 3-[6-[(5-methoxy-6-methyl-3-pyridyl)oxy]-3-pyridyl]-1H-imidazo[4,5-b]pyridin-2-one]",16.4
6,"COc1cc(Oc2ccc(-n3c(=O)[nH]c4cc(C)cnc43)cn2)ccc1C [Example 9, 3-[6-(3-methoxy-4-methyl-phenoxy)-3-pyridyl]-6-methyl-1H-imidazo[4,5-b]pyridin-2-one]",2.5
7,"CC(C)c1cc(Oc2ccc(-n3c(=O)[nH]c4cnccc43)cn2)ccc1C#N [Example 16, 2-isopropyl-4-[[5-(2-oxo-3H-imidazo[4,5-c]pyridin-1-yl)-2-pyridyl]oxy]benzonitrile]",5.9
8,"Cc1ccc(Oc2ccc(-n3c(=O)[nH]c4cccnc43)cn2)cc1F [Example 35, 3-[6-(3-fluoro-4-methyl-phenoxy)-3-pyridyl]-1H-imidazo[4,5-b]pyridin-2-one]",3.6
9,"CC(C)(C)c1cc(C#N)ccc1Oc1ccc(-n2c(=O)[nH]c3ccccc32)cn1 [Example 20, 3-tert-butyl-4-[[5-(2-oxo-3H-benzimidazol-1-yl)-2-pyridyl]oxy]benzonitrile]",12.2
10,"CC(C)(C)c1cc(C#N)ccc1Oc1ccc(-n2c(=O)[nH]c3cncnc32)cn1 [Example 24, 3-tert-butyl-4-[[5-(8-oxo-7H-purin-9-yl)-2-pyridyl]oxy]benzonitrile]",4
11,"CC(C)c1cc(Oc2ccc(-n3c(=O)[nH]c4ccccc43)cn2)ccc1C#N [Example 19, 2-isopropyl-4-[[5-(2-oxo-3H-benzimidazol-1-yl)-2-pyridyl]oxy]benzonitrile]",15.6
12,"CC(C)Oc1cc(Oc2ccc(-n3c(=O)[nH]c4ccccc43)cn2)ccc1C#N [Example 22, 2-isopropoxy-4-[[5-(2-oxo-3H-benzimidazol-1-yl)-2-pyridyl]oxy]benzonitrile]",20.7
13,"COc1cc(O[C@H]2C[C@H](n3c(=O)[nH]c4cnccc43)C2)ccc1C [Example 53, 1-[3-(3-methoxy-4-methyl-phenoxy)cyclobutyl]-3H-imidazo[4,5-c]pyridin-2-one]",3.6
14,"O=c1[nH]c2ncccc2n1-c1ccc(Oc2cccc3c2C2(CC2)CO3)nc1 [Example 13, 1-(6-spiro[2H-benzofuran-3,1′-cyclopropane]-4-yloxy-3-pyridyl)-3H-imidazo[4,5-b]pyridin-2-one]",3.4
15,"CC(C)c1cc(Oc2ccc(-n3c(=O)[nH]c4cc(F)cnc43)cn2)ccc1C#N [Example 14, 4-[[5-(6-fluoro-2-oxo-1H-imidazo[4,5-b]pyridin-3-yl)-2-pyridyl]oxy]-2-isopropyl-benzonitrile]",2.7
16,"CC(C)(C)c1cc(C#N)ccc1Oc1ccc(-n2c(=O)[nH]c3cccnc32)cc1F [Example 51, 3-tert-butyl-4-[2-fluoro-4-(2-oxo-1H-imidazo[4,5-b]pyridin-3-yl)phenoxy]benzonitrile]",12.7
17,"Cc1ccc(Oc2ccc(-n3c(=O)[nH]c4cccnc43)cn2)cc1Cl [Example 3, 3-[6-(3-chloro-4-methyl-phenoxy)-3-pyridyl]-1H-imidazo[4,5-b]pyridin-2-one]",1.6
18,"O=c1[nH]c2ccccc2n1-c1ccc(Oc2cccc3c2C2(CC2)CO3)nc1 [Example 10, 3-(6-spiro[2H-benzofuran-3,1′-cyclopropane]-4-yloxy-3-pyridyl)-1H-benzimidazol-2-one]",2.5
19,"O=c1[nH]c2ccccc2n1-c1ccc(Oc2cccc3c2C2(CC2)CO3)c(F)c1 [Example 23, 3-(3-fluoro-4-spiro[2H-benzofuran-3,1′-cyclopropane]-4-yloxy-phenyl)-1H-benzimidazol-2-one]",3.5
20,"Cc1cc(-n2c(=O)[nH]c3ccccc32)cnc1Oc1cccc2c1C1(CC1)CO2 [Example 11, 3-(5-methyl-6-spiro[2H-benzofuran-3,1′-cyclopropane]-4-yloxy-3-pyridyl)-1H-benzimidazol-2-one]",2.8
21,"O=c1[nH]c2cnccc2n1-c1ccc(Oc2cccc3c2C2(CC2)CO3)nc1 [Example 6, 1-(6-spiro[2H-benzofuran-3,1′-cyclopropane]-4-yloxy-3-pyridyl)-3H-imidazo[4,5-c]pyridin-2-one]",2

# Same assay, conditions: HEK-293 cell line stably expressing Kv3.1; automated patch clamp; 10 min incubation; read-out: EC50 Kv3.1
row,Compound,EC50 [µM]
1,"Cc1ccc(Oc2ccc(-n3c(=O)[nH]c4cnccc43)cn2)cc1OC(F)(F)F [Example 47, 1-[6-[4-methyl-3-(trifluoromethoxy)phenoxy]-3-pyridyl]-3H-imidazo[4,5-c]pyridin-2-one]",2.4
2,"Cc1ccc(Oc2ccc(-n3c(=O)[nH]c4cncnc43)cn2)cc1OC(F)(F)F [Example 25, 9-[6-[4-methyl-3-(trifluoromethoxy)phenoxy]-3-pyridyl]-7H-purin-8-one]",5.9
